Laboratory results from US20170166558A1, “O-GLCNAC TRANSFERASE (OGT) INHIBITORS AND USES THEREOF” (President and Fellows of Harvard College, priority 2014, published 2017).

Key:
[1] = target: T1, full length human OGT (ncOGT) (Homo sapiens, UniProt O15294); assay: UDP-Glo luminescence-based coupled enzyme assay; type: biochemical
T1 construct: made in house
T1 sequence (O15294 1-1046): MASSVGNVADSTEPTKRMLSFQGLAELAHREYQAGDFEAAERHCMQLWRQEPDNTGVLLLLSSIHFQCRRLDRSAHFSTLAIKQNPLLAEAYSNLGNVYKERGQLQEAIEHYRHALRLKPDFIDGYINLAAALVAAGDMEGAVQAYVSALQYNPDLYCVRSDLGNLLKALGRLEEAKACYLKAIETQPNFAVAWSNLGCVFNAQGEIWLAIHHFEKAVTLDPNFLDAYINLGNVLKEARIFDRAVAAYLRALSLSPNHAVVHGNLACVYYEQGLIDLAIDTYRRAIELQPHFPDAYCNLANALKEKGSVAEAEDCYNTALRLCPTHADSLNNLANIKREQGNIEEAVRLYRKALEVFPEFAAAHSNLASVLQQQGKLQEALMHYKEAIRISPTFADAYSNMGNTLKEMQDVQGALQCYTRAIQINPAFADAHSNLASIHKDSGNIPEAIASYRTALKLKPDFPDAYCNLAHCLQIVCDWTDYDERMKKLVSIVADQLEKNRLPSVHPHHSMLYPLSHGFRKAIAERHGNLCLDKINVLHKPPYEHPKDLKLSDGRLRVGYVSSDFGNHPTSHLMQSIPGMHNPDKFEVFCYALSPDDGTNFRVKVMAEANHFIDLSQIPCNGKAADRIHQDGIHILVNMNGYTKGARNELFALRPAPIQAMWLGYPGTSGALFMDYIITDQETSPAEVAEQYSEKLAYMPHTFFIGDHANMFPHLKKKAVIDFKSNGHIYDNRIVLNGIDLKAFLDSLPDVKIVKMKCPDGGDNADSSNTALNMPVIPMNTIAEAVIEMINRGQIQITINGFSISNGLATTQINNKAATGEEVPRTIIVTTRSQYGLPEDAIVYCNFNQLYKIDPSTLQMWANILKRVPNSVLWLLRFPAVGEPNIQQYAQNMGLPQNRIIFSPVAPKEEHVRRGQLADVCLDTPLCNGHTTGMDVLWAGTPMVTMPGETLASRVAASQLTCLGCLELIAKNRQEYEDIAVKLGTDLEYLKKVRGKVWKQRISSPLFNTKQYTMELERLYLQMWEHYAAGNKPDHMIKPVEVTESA
Method: UDP-Glo assay: Materials for this assay were obtained from Promega (catalog #V6961), and the experiment was performed largely as outlined by the manufacturer. IC50 values were determined in the range of 0 to 100 μM (eleven concentration points). Assays were performed either in white, 96-well or ½-volume 96-well, plates. This assay was run with 125 μM CKII3K peptide acceptor. Reaction volumes were between 14 (half volume plates) and 20 (normal volume plates) μL. Reactions contained the following components: 300 nM ncOGT, 125 μM CKII3K and 40 μM UDP-GlcNAc in 1× PBS pH 7.4 supplemented with 1 mM THP. Reactions were incubated for one hour at 25° C. and quenched by the addition of an equal volume of UDP-Glo nucleotide detection reagent, prepared and used according to manufacturer guidelines. The quenched reactions were then mixed briefly by shaking at 1800 rpm in a Thermomixer C, and incubated for one hour at room temperature prior to reading luminescence, as per the manufacturers guidelines. Data were analyzed by Microsoft Excel and Prism 6 (Graphpad). When evaluating the effect of sugar donor concentration, this parameter was varied, while all other conditions remained as described above. Each sample in this case was run in duplicate, unless otherwise specified. The 40 μM curve in FIG. 16C has each point in quadruplicate. Similarly, there is an n=9 for each point in the OSMI-1 curve in FIG. 16B.

[2] = target: T2, ncOGT (Homo sapiens, UniProt O15294); assay: Radiometric capture assay with Nup62 acceptor and UDP-14C-GlcNAc; type: biochemical
T2 construct: full length human OGT (ncOGT); made in house
T2 sequence (O15294 1-1046): T1 sequence (O15294 1-1046)
Method: Radiometric capture assay: Nucleoporin 62 (Nup62) was used as a model substrate. IC50 values of the both inhibitors were determined at range of 0 to 100 μM (eight point, duplicate). OGT antagonists were tested in a reaction mixture containing 18 μM Nup62, 6 μM UDP-^14C-GlcNAc, 100 nM ncOGT, and lx phosphate-buffered saline (1× PBS) (137 mM NaCl, 2.7 mM KCl, 10 mM Na2HPO4, and 1.8 mM KH2PO4, pH 7.4). The Nup62 glycosylation reactions were run for 15 min at 37° C. Reaction mixtures were subsequently quenched by spottinged on Whatman® Protran® nitrocellulose membrane, washed with 1× PBS three times for 15 minutes each. The membranes were air dried and then counted by liquid scintillation counting. The data were analyzed by Microsoft® Excel and Prism 6 (Graphpad®). Robust non-linear variable slope regressions were generated to determine the IC50 and Hill slope values.
In order to evaluate the mode of inhibition of OSMI-1 and UDP-5S-GlcNAc, a series of experiments, as outlined above, were performed with Nup62 as glycosylation substrate. The inhibition test of OSMI-1 was performed by varying the UDP-^14C-GlcNAc concentration from 0 to 0.25 mM while holding concentration of Nup62 constant at 10 μM with four different concentrations of OSMI-1 (0 to 2 μM) in 1× PBS with 100 nM ncOGT and with fixed and saturating concentrations of GST-Nup62 acceptor. The inhibition test of UDP-5S-GlcNAc was performed by varying the UDP-^14C-GlcNAc concentration from 0 to 1 mM while holding concentration of Nup62 constant at 10 μM with five different concentrations of UDP-5S-GlcNAc (0, 1, 5, 10, and 15 μM) in 1× PBS with 100 nM ncOGT. Each reaction was spotted on Whatman® grade P81 ion exchange chromatography paper circles, washed with 1× PBS three times for 15 minutes each. The membranes were air dried and then counted by liquid scintillation counting. Each assay was duplicated in parallel. The data were analyzed by Microsoft® Excel and Prism 6 (Graphpad®). The Michaelis-Menten plots and Ki of both inhibitors calculated under non-linear regression with competitive inhibition mode are shown in FIG. 5.

COc1ccccc1[C@@H](NS(=O)(=O)c1ccc2[nH]c(=O)ccc2c1)C(=O)N(Cc1ccco1)Cc1cccs1 [OSMI-1, (R)—N-(furan-2-ylmethyl)-2-(2-methoxyphenyl)-2-(2-oxo-1,2-dihydroquinoline-6-sulfonamido)-N-(thiophen-2-ylmethyl)acetamide]
IC50 ([1]; 40 μM UDP-GlcNAc, 125 μM CKII3K peptide, read-out: IC50 against ncOGT, coupled enzyme assay): 2700 nM | Mode of inhibition with respect to UDP-GlcNAc ([1]; various UDP-GlcNAc concentrations): did not act competitively | IC50 ([2]; 6 μM UDP-GlcNAc, 18 μM GST-Nup62): 3000 nM | Ki ([2]; non-linear regression, competitive inhibition fit, Nup62 substrate, read-out: Inhibition constant (Ki)): 400 nM
